Experimental data reported in the NIST ThermoML archive (doi:10.1016/j.jct.2004.11.009).
Numbers after ± are expanded uncertainties.

Experiments:
[1] = 101.33 kPa, Liquid
[2] = xn = mol fraction of the nth substance listed; conditions: 101.33 kPa, Liquid, x2 = 0

Cc1cccnc1 [3-methylpyridine]
mass density ([1]; 293.15 K): 956 ± 0.6 kg/m3
viscosity ([1]; 293.15 K): 0.9459 ± 0.016 mPa·s
mass density ([1]; 303.15 K): 946.6 ± 0.6 kg/m3
viscosity ([1]; 303.15 K): 0.8318 ± 0.014 mPa·s
mass density ([1]; 313.15 K): 937.7 ± 0.6 kg/m3
viscosity ([1]; 313.15 K): 0.7352 ± 0.012 mPa·s
mass density ([1]; 323.15 K): 928.3 ± 0.7 kg/m3
viscosity ([1]; 323.15 K): 0.6565 ± 0.011 mPa·s
mass density ([1]; 333.15 K): 919.3 ± 0.7 kg/m3
viscosity ([1]; 333.15 K): 0.5936 ± 0.01 mPa·s
mass density ([1]; 343.15 K): 910.3 ± 0.7 kg/m3
viscosity ([1]; 343.15 K): 0.539 ± 0.0094 mPa·s

O [water] + Cc1cccnc1
viscosity ([2]; 293.15 K): 1.002 ± 0.017 mPa·s
viscosity ([2]; 303.15 K): 0.7977 ± 0.013 mPa·s
viscosity ([2]; 313.15 K): 0.6532 ± 0.011 mPa·s
mass density ([2]; 323.15 K): 988 ± 0.7 kg/m3
viscosity ([2]; 323.15 K): 0.547 ± 0.0096 mPa·s
mass density ([2]; 333.15 K): 983.2 ± 0.8 kg/m3
viscosity ([2]; 333.15 K): 0.4665 ± 0.0083 mPa·s
mass density ([2]; 343.15 K): 977.8 ± 0.8 kg/m3
viscosity ([2]; 343.15 K): 0.404 ± 0.0073 mPa·s
